Laboratory results from PubChem BioAssay AID1963446 (Molecular Pharmacology Branch, DTP, NCI, 2024).
Where “and” joins values, the source holds several entries; their conditions need not be identical. Identical values can stand only once.

System: 993429-296-R-J1-PDC complex spheroid growth, percent test/control
Assay: Anticancer human tumor 993429-296-R-J1-PDC patient-derived uterine sarcoma cell line growth inhibition [Asc]
Conditions: for viability, T/C: stronger effect = lower value
Outline: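 Concentration series start at each agent's clinical Cmax, or at 10 microM when none is established, and drop in half-log steps; agents are applied alone or together to complex spheroids built with HUVEC and hMSC.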

[1] = curve of first compound, second compound 0.1 µM
[2] = curve of first compound, second compound 0.316 µM
[3] = curve of first compound, second compound 1 µM
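Note: spheroids exposed to compounds for seven days.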

Question: For COc1c(OCCCN2CCOCC2)ccc2c3n(c(=NC(=O)c4cnc(N)nc4)nc12)CCN3 + CNC(C)C(=O)NC1CN(S(=O)(=O)c2cccc(S(=O)(=O)N3CCC4CCC(C(=O)NC(c5ccccc5)c5ccccc5)N4C(=O)C(NC(=O)C(C)NC)C3)c2)CCC2CCC(C(=O)NC(c3ccccc3)c3ccccc3)N2C1=O, which IC50 (curve of first compound, second compound 0.01 µM) is on record?
Answer: Its IC50 is 16.3 nM.

Question: What about the IC50 (curve of first compound, second compound 0.0316 µM) of the same compound?
Answer: The IC50 was 9.29 nM.

Question: What about the IC50 [1] of the same compound?
Answer: Its IC50 is 12.1 nM.

Question: What about the IC50 [2] of the same compound?
Answer: Its IC50 is 5.34 nM.

Question: And the IC50 [3]?
Answer: Its IC50 is 4.09 nM.

Question: And the viability, T/C (second compound 0.01 µM, first compound 0.00316 µM)?
Answer: Its viability, T/C is 68.8%.

Question: What about the viability, T/C (second compound 0.01 µM, first compound 0.01 µM) of the same compound?
Answer: The viability, T/C was 60.1%.

Question: And the viability, T/C (second compound 0.01 µM, first compound 0.0316 µM)?
Answer: The viability, T/C was 36.4%.

Question: What about the viability, T/C (second compound 0.01 µM, first compound 0.1 µM) of the same compound?
Answer: The viability, T/C was 12.3%.

Question: And the viability, T/C (second compound 0.01 µM, first compound 0.316 µM)?
Answer: The viability, T/C was 3.69%.

Question: What about the viability, T/C (second compound 0.01 µM, first compound 1 µM) of the same compound?
Answer: Its viability, T/C is 1.21%.

Question: What about the viability, T/C (second compound 0.0316 µM, first compound 0.00316 µM) of the same compound?
Answer: The viability, T/C was 54.7%.

Question: And the viability, T/C (second compound 0.0316 µM, first compound 0.01 µM)?
Answer: The viability, T/C was 50%.

Question: What about the viability, T/C (second compound 0.0316 µM, first compound 0.0316 µM) of the same compound?
Answer: The viability, T/C was 32.9%.

Question: What about the viability, T/C (second compound 0.0316 µM, first compound 0.1 µM) of the same compound?
Answer: Its viability, T/C is 12.4%.

Question: What about the viability, T/C (second compound 0.0316 µM, first compound 0.316 µM) of the same compound?
Answer: Its viability, T/C is 4.55%.

Question: What about the viability, T/C (second compound 0.0316 µM, first compound 1 µM) of the same compound?
Answer: The viability, T/C was 1.09%.

Question: And the viability, T/C (second compound 0.1 µM, first compound 0.00316 µM)?
Answer: Its viability, T/C is 57.1%.

Question: What about the viability, T/C (second compound 0.1 µM, first compound 0.01 µM) of the same compound?
Answer: The viability, T/C was 56.9%.

Question: What about the viability, T/C (second compound 0.1 µM, first compound 0.0316 µM) of the same compound?
Answer: Its viability, T/C is 29.9%.

Question: What about the viability, T/C (second compound 0.1 µM, first compound 0.1 µM) of the same compound?
Answer: Its viability, T/C is 12.2%.

Question: And the viability, T/C (second compound 0.1 µM, first compound 0.316 µM)?
Answer: The viability, T/C was 3.36%.

Question: And the viability, T/C (second compound 0.1 µM, first compound 1 µM)?
Answer: Its viability, T/C is 1.18%.

Question: What about the viability, T/C (second compound 0.316 µM, first compound 0.00316 µM) of the same compound?
Answer: Its viability, T/C is 58%.

Question: And the viability, T/C (second compound 0.316 µM, first compound 0.01 µM)?
Answer: Its viability, T/C is 39.8%.

Question: And the viability, T/C (second compound 0.316 µM, first compound 0.0316 µM)?
Answer: Its viability, T/C is 24.5%.

Question: What about the viability, T/C (second compound 0.316 µM, first compound 0.1 µM) of the same compound?
Answer: The viability, T/C was 8.8%.

Question: What about the viability, T/C (second compound 0.316 µM, first compound 0.316 µM) of the same compound?
Answer: The viability, T/C was 3.2%.

Question: What about the viability, T/C (second compound 0.316 µM, first compound 1 µM) of the same compound?
Answer: Its viability, T/C is 1.42%.

Question: And the viability, T/C (second compound 1 µM, first compound 0.00316 µM)?
Answer: Its viability, T/C is 52.4%.

Question: What about the viability, T/C (second compound 1 µM, first compound 0.01 µM) of the same compound?
Answer: The viability, T/C was 41.6%.

Question: What about the viability, T/C (second compound 1 µM, first compound 0.0316 µM) of the same compound?
Answer: Its viability, T/C is 24.8%.

Question: And the viability, T/C (second compound 1 µM, first compound 0.1 µM)?
Answer: Its viability, T/C is 11.3%.

Question: And the viability, T/C (second compound 1 µM, first compound 0.316 µM)?
Answer: Its viability, T/C is 4.7%.

Question: And the viability, T/C (second compound 1 µM, first compound 1 µM)?
Answer: Its viability, T/C is 0.9%.

Question: How did the viability, T/C (compound 0.00316 µM) turn out when O=C(c1ccc(F)c(F)c1Nc1ccc(I)cc1F)N1CC(O)([C@@H]2CCCCN2)C1 was run?
Answer: Its viability, T/C is 94.3% and 75.1% and 94.5%.

Question: And the viability, T/C (compound 0.01 µM)?
Answer: Its viability, T/C is 86% and 69.7% and 83.4%.

Question: What about the viability, T/C (compound 0.0316 µM) of the same compound?
Answer: The viability, T/C was 62.6% and 54.8% and 79.4%.

Question: And the viability, T/C (compound 0.1 µM)?
Answer: Its viability, T/C is 41% and 34.7% and 70.9%.

Question: What about the viability, T/C (compound 0.316 µM) of the same compound?
Answer: The viability, T/C was 14.8% and 10.7% and 39.1%.

Question: And the viability, T/C (compound 1 µM)?
Answer: Its viability, T/C is 1.26% and 1.77% and 3.59%.

Question: What about the IC50 (curve of compound) of the same compound?
Answer: The IC50 was 61.4 nM and 42.6 nM and 212 nM.

Question: What does the source list for Cc1nc(N2CCC3(CC2)COC(C)C3N)c(CO)nc1Sc1ccnc(N)c1Cl (configuration not stated) + Cc1c(S(C)(=O)=O)c(-c2cc(F)cc(N3CCN(c4ccc(NS(=O)(=O)c5ccc(NC(CCN6CCC(C(=O)OCCCP(=O)(O)O)CC6)CSc6ccccc6)c(S(=O)(=O)C(F)(F)F)c5)cc4)CC3)c2)c(-c2ccc(Cl)cc2)n1C(C)C?
Answer: IC50 [1]: 80.2 nM; IC50 [2]: 30.5 nM; IC50 [3]: 14.6 nM; IC50 (curve of first compound, second compound 3.16 µM): < 9.49 nM; IC50 (curve of first compound, second compound 10 µM): 98.7 nM; viability, T/C (second compound 0.1 µM, first compound 0.00949 µM): 71.1%; viability, T/C (second compound 0.1 µM, first compound 0.03 µM): 64.3%; viability, T/C (second compound 0.1 µM, first compound 0.0949 µM): 47.2%; viability, T/C (second compound 0.1 µM, first compound 0.3 µM): 29.7%; viability, T/C (second compound 0.1 µM, first compound 0.949 µM): 18.8%; viability, T/C (second compound 0.1 µM, first compound 3 µM): 17.1%; viability, T/C (second compound 0.316 µM, first compound 0.00949 µM): 60.7%; viability, T/C (second compound 0.316 µM, first compound 0.03 µM): 49.3%; viability, T/C (second compound 0.316 µM, first compound 0.0949 µM): 35.7%; viability, T/C (second compound 0.316 µM, first compound 0.3 µM): 21.9%; viability, T/C (second compound 0.316 µM, first compound 0.949 µM): 14.1%; viability, T/C (second compound 0.316 µM, first compound 3 µM): 14.7%; viability, T/C (second compound 1 µM, first compound 0.00949 µM): 52.2%; viability, T/C (second compound 1 µM, first compound 0.03 µM): 46.3%; viability, T/C (second compound 1 µM, first compound 0.0949 µM): 27%; viability, T/C (second compound 1 µM, first compound 0.3 µM): 14.5%; viability, T/C (second compound 1 µM, first compound 0.949 µM): 14.4%; viability, T/C (second compound 1 µM, first compound 3 µM): 10.1%; viability, T/C (second compound 3.16 µM, first compound 0.00949 µM): 34.6%; viability, T/C (second compound 3.16 µM, first compound 0.03 µM): 29.8%; viability, T/C (second compound 3.16 µM, first compound 0.0949 µM): 33.6%; viability, T/C (second compound 3.16 µM, first compound 0.3 µM): 13.2%; viability, T/C (second compound 3.16 µM, first compound 0.949 µM): 10.8%; viability, T/C (second compound 3.16 µM, first compound 3 µM): 8.71%; viability, T/C (second compound 10 µM, first compound 0.00949 µM): 76.7%; viability, T/C (second compound 10 µM, first compound 0.03 µM): 67.5%; viability, T/C (second compound 10 µM, first compound 0.0949 µM): 51.1%; viability, T/C (second compound 10 µM, first compound 0.3 µM): 29.9%; viability, T/C (second compound 10 µM, first compound 0.949 µM): 14.4%; viability, T/C (second compound 10 µM, first compound 3 µM): 13.8%
